Seven compounds from patent US10131652B2, “Pyrimidinyloxy benzene derivatives as herbicides” (E. I. DU PONT DE NEMOURS AND COMPANY, priority 2014, dated 2018) can be followed below.

Common to all, as to format: in vivo
Assay [1] concerns deadnettle (henbit deadnettle, Lamium amplexicaule). The experiment in a line: Test E pre-/postemergence plant response. The note with it: scale 0 to 100, read-out: Plant response rating, Deadnettle; for pest or weed control at 16 g/ha: 16 g ai/ha; for pest or weed control at 31 g/ha: 31 g ai/ha; for pest or weed control at 62 g/ha: 62 g ai/ha; for pest or weed control at 125 g/ha: 125 g ai/ha. A digest of the protocol: (§1)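 Visual scores on a 0–100 scale (100 = complete control) were assigned against untreated controls 7–21 days after treatment in a controlled environment. Compounds, formulated with solvent plus surfactant, were applied to pre-emergence silt-loam sowings or to 1- to 4-leaf plants (2–18 cm) in potting medium.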

Assay [2] has as its system downy bromegrass (Bromus tectorum). The experiment in a line: Test E pre-/postemergence plant response. The settings on record: scale 0 to 100, read-out: Plant response rating, Bromegrass, Downy; for pest or weed control at 16 g/ha: 16 g ai/ha; for pest or weed control at 31 g/ha: 31 g ai/ha; for pest or weed control at 62 g/ha: 62 g ai/ha; for pest or weed control at 125 g/ha: 125 g ai/ha. A digest of the protocol: as §1

The subject of assay [3] is barnyardgrass (Echinochloa crus-galli). The experiment in a line: Test D flooded paddy test plant response. The note with it: Flood (flooded paddy test), visual rating on scale 0 to 100 (0 no effect, 100 complete control), 13 to 15 days. From the text: (§2) Plant species in the flooded paddy test consisted of rice (Oryza sativa), small-flower umbrella sedge (Cyperus difformis), ducksalad (Heteranthera limosa), and bamyardgrass (Echinochloa crus-galli) grown to the 2-leaf stage for testing. At time of treatment, test pots were flooded to 3 cm above the soil surface, treated by application of test compounds directly to the paddy water, and then maintained at that water depth for the duration of the test. Treated plants and controls were maintained in a greenhouse for 13 to 15 days, after which time all species were compared to controls and visually evaluated. Plant response ratings, summarized in Table D, are based on a scale of 0 to 100 where 0 is no effect and 100 is complete control. A dash (-) response means no test result.

Assay [4] relates to ducksalad (Heteranthera limosa). The experiment in a line: Test D flooded paddy test plant response. The settings on record: Flood (flooded paddy test), visual rating on scale 0 to 100 (0 no effect, 100 complete control), 13 to 15 days.
Text: as §2

The subject of a further assay is rice (Oryza sativa). The experiment in a line: Test D flooded paddy test plant response. The note with it: Flood (flooded paddy test), visual rating on scale 0 to 100 (0 no effect, 100 complete control), 13 to 15 days.
Text: as §2

Assay [5] concerns small-flower umbrella sedge (Cyperus difformis). The experiment in a line: Test D flooded paddy test plant response. The note with it: Flood (flooded paddy test), visual rating on scale 0 to 100 (0 no effect, 100 complete control), 13 to 15 days.
Text: as §2

The structures appear in SMILES notation. Like-named read-outs stand apart in the source and are kept apart here.

On to `FC(F)(F)c1cc(-c2ccccc2Oc2ncc(Cl)cn2)no1` [Compound 200, 5-chloro-2-[2-[5-(trifluoromethyl)-3-isoxazolyl]phenoxy]pyrimidine], for which the pest or weed control at 16 g/ha is 50% in assay [1] (post-emergence, Postemergence); 60% in assay [1] (pre-emergence, Preemergence); 5% in assay [2] (post-emergence, Postemergence); 10% in assay [2] (pre-emergence, Preemergence). Further, the pest or weed control at 31 g/ha in assay [1] (post-emergence, Postemergence) is 60%; in assay [1] (pre-emergence, Preemergence) it was 90%; in assay [2] (post-emergence, Postemergence), 10%; in assay [2] (pre-emergence, Preemergence), 35%. For the same compound, the pest or weed control at 62 g/ha in assay [1] (post-emergence, Postemergence) stood at 80%; in assay [1] (pre-emergence, Preemergence), 100%; in assay [2] (post-emergence, Postemergence) it was 25%; in assay [2] (pre-emergence, Preemergence), 45%. Also, the pest or weed control at 125 g/ha in assay [1] (post-emergence, Postemergence) came out at 90%; in assay [1] (pre-emergence, Preemergence), 100%; in assay [2] (post-emergence, Postemergence), 35%; in assay [2] (pre-emergence, Preemergence), 80%.

Turning to `Fc1cccc(Oc2ncc(Cl)cn2)c1-c1cc(C(F)(F)F)on1` [Compound 168, 5-chloro-2-[2-[5-(trifluoromethyl)-3-isoxazolyl]-3-fluorophenoxy]pyrimidine], in assay [1] (post-emergence, Postemergence), the pest or weed control at 16 g/ha stood at 20%, the pest or weed control at 31 g/ha came to 55%, the pest or weed control at 62 g/ha was 75% and the pest or weed control at 125 g/ha turned out to be 80%. In addition, in assay [1] (pre-emergence, Preemergence), the pest or weed control at 16 g/ha amounted to 10%, the pest or weed control at 31 g/ha came to 50%, the pest or weed control at 62 g/ha was found to be 80% and the pest or weed control at 125 g/ha came to 100%. Also, in assay [2] (post-emergence, Postemergence), the pest or weed control at 16 g/ha was 5%, the pest or weed control at 31 g/ha amounted to 15%, the pest or weed control at 62 g/ha was found to be 25% and the pest or weed control at 125 g/ha was 35%. In assay [2] (pre-emergence, Preemergence), the pest or weed control at 16 g/ha stood at 0%, the pest or weed control at 31 g/ha came out at 10%, the pest or weed control at 62 g/ha came to 10% and the pest or weed control at 125 g/ha stood at 40%.

Consider `FC(F)c1cc(-c2ccccc2Oc2ncc(Br)cn2)no1` [Compound 62, 5-bromo-2-[2-[5-(difluoromethyl)-3-isoxazolyl]phenoxy]pyrimidine], for which, in assay [1] (post-emergence, Postemergence), the pest or weed control at 16 g/ha is 35%, the pest or weed control at 31 g/ha was 35%, the pest or weed control at 62 g/ha came to 65% and the pest or weed control at 125 g/ha came to 70%. In assay [1] (pre-emergence, Preemergence), the pest or weed control at 16 g/ha is 15%, the pest or weed control at 31 g/ha came to 20%, the pest or weed control at 62 g/ha was found to be 40% and the pest or weed control at 125 g/ha turned out to be 100%. For the same compound, in assay [2] (post-emergence, Postemergence), the pest or weed control at 16 g/ha worked out at 10%, the pest or weed control at 31 g/ha was 15%, the pest or weed control at 62 g/ha worked out at 20% and the pest or weed control at 125 g/ha worked out at 40%. In assay [2] (pre-emergence, Preemergence), the pest or weed control at 16 g/ha was 0%, the pest or weed control at 31 g/ha amounted to 0%, the pest or weed control at 62 g/ha is 10% and the pest or weed control at 125 g/ha was found to be 20%.

`N#Cc1cccc(Oc2ncc(Cl)cn2)c1-c1cc(C(F)F)on1` [Compound 180]: the “Plant response rating, Barnyardgrass” value in assay [3] (31 g ai/ha) was 0; in assay [3] (62 g ai/ha) it was 0; in assay [3] (125 g ai/ha) it was 10; in assay [3] (250 g ai/ha) it was 10. Moreover, the “Plant response rating, Ducksalad” value in assay [4] (31 g ai/ha) is listed as 0; in assay [4] (62 g ai/ha), 0; in assay [4] (125 g ai/ha), 75; in assay [4] (250 g ai/ha), 75. In addition, the “Plant response rating, Rice” value in the assay with rice (Oryza sativa) (31 g ai/ha), in the assay with rice (Oryza sativa) (62 g ai/ha), in the assay with rice (Oryza sativa) (125 g ai/ha) and in the assay on rice (Oryza sativa) (250 g ai/ha) was 0 each time. Further, the “Plant response rating, Sedge, Umbrella” value in assay [5] (31 g ai/ha) is 0; in assay [5] (62 g ai/ha), 50; in assay [5] (125 g ai/ha), 75; in assay [5] (250 g ai/ha) it was 80.

Regarding `FCc1cc(-c2ccccc2Oc2ncc(Cl)cn2)no1` [Compound 32, 5-chloro-2-[2-[5-(fluoromethyl)-3-isoxazolyl]phenoxy]pyrimidine], the “Plant response rating, Barnyardgrass” value turned out to be 0 in assay [3] (31 g ai/ha), 0 in assay [3] (62 g ai/ha), 10 in assay [3] (125 g ai/ha) and 20 in assay [3] (250 g ai/ha). The “Plant response rating, Ducksalad” value in assay [4] (31 g ai/ha) was found to be 0; in assay [4] (62 g ai/ha) it was 60; in assay [4] (125 g ai/ha), 65; in assay [4] (250 g ai/ha) it was 95. The “Plant response rating, Rice” value in the assay with rice (Oryza sativa) (31 g ai/ha) is given as 0; in the assay on rice (Oryza sativa) (62 g ai/ha), 0; with rice (Oryza sativa) (125 g ai/ha), 0; in the assay with rice (Oryza sativa) (250 g ai/ha), 15. Moreover, the “Plant response rating, Sedge, Umbrella” value in assay [5] (31 g ai/ha) came out at 0; in assay [5] (62 g ai/ha) it was 40; in assay [5] (125 g ai/ha), 65; in assay [5] (250 g ai/ha) it was 90.

On to `CC(F)(F)c1cc(-c2ccccc2Oc2ncc(Cl)cn2)on1` [Compound 178], for which the “Plant response rating, Barnyardgrass” value in assay [3] (31 g ai/ha), in assay [3] (62 g ai/ha), in assay [3] (125 g ai/ha) and in assay [3] (250 g ai/ha) was 0 in each case. The “Plant response rating, Ducksalad” value in assay [4] (31 g ai/ha) was found to be 40; in assay [4] (62 g ai/ha), 65; in assay [4] (125 g ai/ha), 70; in assay [4] (250 g ai/ha), 70. In addition, the “Plant response rating, Rice” value in the assay on rice (Oryza sativa) (31 g ai/ha), in the assay on rice (Oryza sativa) (62 g ai/ha), with rice (Oryza sativa) (125 g ai/ha) and in the assay with rice (Oryza sativa) (250 g ai/ha) was 0 in each case. For the same compound, the “Plant response rating, Sedge, Umbrella” value in assay [5] (31 g ai/ha) was found to be 30; in assay [5] (62 g ai/ha) it was 60; in assay [5] (125 g ai/ha), 60; in assay [5] (250 g ai/ha), 75.

Take `FC(F)c1cc(-c2ccccc2Oc2ncc(Cl)cn2)on1` [Compound 53, 5-chloro-2-[2-[3-(difluoromethyl)-5-isoxazolyl]phenoxy]pyrimidine]: the “Plant response rating, Barnyardgrass” value in assay [3] (31 g ai/ha), in assay [3] (62 g ai/ha), in assay [3] (125 g ai/ha) and in assay [3] (250 g ai/ha) was 0 in each case. The “Plant response rating, Ducksalad” value in assay [4] (31 g ai/ha) is listed as 40; in assay [4] (62 g ai/ha), 50; in assay [4] (125 g ai/ha) it was 80; in assay [4] (250 g ai/ha) it was 80. Further, the “Plant response rating, Rice” value with rice (Oryza sativa) (31 g ai/ha), with rice (Oryza sativa) (62 g ai/ha), with rice (Oryza sativa) (125 g ai/ha) and in the assay with rice (Oryza sativa) (250 g ai/ha) was 0 each time. Besides, the “Plant response rating, Sedge, Umbrella” value in assay [5] (31 g ai/ha) was 0; in assay [5] (62 g ai/ha), 0; in assay [5] (125 g ai/ha) it was 70; in assay [5] (250 g ai/ha) it was 75. Also, the pest or weed control at 16 g/ha in assay [1] (post-emergence, Postemergence) stood at 20%; in assay [1] (pre-emergence, Preemergence), 10%; in assay [2] (post-emergence, Postemergence), 0%; in assay [2] (pre-emergence, Preemergence), 0%. The pest or weed control at 31 g/ha in assay [1] (post-emergence, Postemergence) worked out at 30%; in assay [1] (pre-emergence, Preemergence), 10%; in assay [2] (post-emergence, Postemergence), 0%; in assay [2] (pre-emergence, Preemergence), 15%. The pest or weed control at 62 g/ha turned out to be 60% in assay [1] (post-emergence, Postemergence); 50% in assay [1] (pre-emergence, Preemergence); 5% in assay [2] (post-emergence, Postemergence); 15% in assay [2] (pre-emergence, Preemergence). Further, the pest or weed control at 125 g/ha turned out to be 65% in assay [1] (post-emergence, Postemergence); 65% in assay [1] (pre-emergence, Preemergence); 5% in assay [2] (post-emergence, Postemergence); 15% in assay [2] (pre-emergence, Preemergence).
